This note sets out measurements from article PMC8315011, “The Spleen Tyrosine Kinase Inhibitor, Entospletinib (GS-9973) Restores Chemosensitivity in Lung Cancer Cells by Modulating ABCG2-mediated Multidrug Resistance” (International Journal of Biological Sciences, 2021).

In data set [1] the target is T1, ABCG2 (Homo sapiens, UniProt Q9UNQ0).
T1 sequence (Q9UNQ0 1-655): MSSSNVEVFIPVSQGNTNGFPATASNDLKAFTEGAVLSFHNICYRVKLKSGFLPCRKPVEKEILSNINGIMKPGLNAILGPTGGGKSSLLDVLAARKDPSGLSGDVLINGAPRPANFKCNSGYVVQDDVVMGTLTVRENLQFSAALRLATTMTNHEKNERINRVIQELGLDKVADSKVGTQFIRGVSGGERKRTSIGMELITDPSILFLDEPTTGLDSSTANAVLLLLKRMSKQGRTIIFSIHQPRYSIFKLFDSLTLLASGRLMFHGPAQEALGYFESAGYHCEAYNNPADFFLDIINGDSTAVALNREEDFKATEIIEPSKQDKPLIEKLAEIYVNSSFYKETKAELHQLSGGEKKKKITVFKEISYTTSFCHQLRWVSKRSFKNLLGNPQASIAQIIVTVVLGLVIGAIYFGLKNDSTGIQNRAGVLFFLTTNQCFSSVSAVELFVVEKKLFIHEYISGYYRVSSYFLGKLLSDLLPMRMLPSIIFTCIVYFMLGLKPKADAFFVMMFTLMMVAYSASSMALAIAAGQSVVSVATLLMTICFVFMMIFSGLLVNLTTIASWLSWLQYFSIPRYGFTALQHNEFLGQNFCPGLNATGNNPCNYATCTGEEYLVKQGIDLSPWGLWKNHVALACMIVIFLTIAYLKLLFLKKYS

Data set [2] has as its target T1, ABCG2. Kind of data set: ABCG2 ATPase stimulation in membrane vesicles ([…] of basal); supported by inhibition of [3H]-mitoxantrone efflux in NCI-H460/MX20 cells at […]. In kind it is biochemical. Also noted: membrane vesicles with ABCG2 (PREDEASY ATPase kit).

SMILES strings stand for the structures.

As to `O=C1c2c(O)ccc(O)c2C(=O)c2c(NCCNCCO)ccc(NCCNCCO)c21` [mitoxantrone], the “radiolabelled substrate accumulation and efflux, parental vs ABCG2-overexpressin” value at ABCG2 [1] was “proving that the efflux of [^3H]-mitoxantrone was mediated by the ABCG2 transporter”.
Usually EC50 stands for the concentration needed to bring the measured effect to its halfway point. Consider `c1cn2cc(-c3ccc4cn[nH]c4c3)nc(Nc3ccc(N4CCOCC4)cc3)c2n1` [GS-9973], for which it took 420 nM to reach a half-maximal effect on ABCG2 [2] (EC50).
